Patent US7488712B2, “Histone deacetylase inhibitors and methods for producing the same” (Kyushu Institute of Technology, priority 2002, dated 2009)
Read-outs that look alike come from different tables or passages of the source. Where a SMILES comes first, the peptide text is derived from it. [ ]: non-standard residue; d: D form. Gly((CH2)5SH) = N[C@@H](CCCCCS)C(=O)O

Columns and labels:
[1] = amide bond, 12-membered ring, HATU/DIEA, DMF
[2] = test system: human wild-type p21 promoter; experiment: p21 promoter-inducing activity (luciferase) in MFLL-9 cells; format: cell-based
Experimental: The HDAC inhibition activity in vivo was measured using p21 promoter-inducing activity as an index, as shown below. The MFLL-9 cells employed for the experiments stably maintained fusion genes of human wild-type p21 promoter and luciferase (Dr. B. Vogelstaein). Using phenol red-free DMEM medium comprising 10% FBS, cultivation was carried out in a steam-saturated incubator at 37° C. with 5% carbon dioxide. The MFLL-9 cells were plated at a density of 85,000 cells/well on a 96-well microtiter plate, each in 99 μl of the above-mentioned medium. These were then cultivated for six hours. One μl of test compound solution was added to each well, which was then cultured for another 18 hours.
The intensity of luminescence caused by the product of the enzyme reaction for intracellular luciferase expression was measured using Luc Lite (Packard BioScience Company). A group in which test compounds were not added was used as a negative control group. The values measured for this group were used as a standard. The activities for each concentration of added test compound were expressed relative to the above-mentioned standard value, 1.

[3] = Cytotoxicity test (free-LDH ratio), TIG-3; format: cell-based; details: human, TIG-3 human normal lung cells
Experimental: This was then cultured for 18 hours.

human HDAC4 = target: T1, human HDAC4 (Homo sapiens, UniProt P56524); experiment: In vitro HDAC inhibition activity, [3H]-acetylated histone substrate, HDAC4; format: biochemical
T1 construct: FLAG; made in house; host or cells: 293T cells (transient transfection, anti-FLAG immunoprecipitation, FLAG peptide elution)
Experimental: (§1) To measure HDAC inhibition activity, an HDAC solution was prepared as described below. 1×10^7 of 293T cells were plated on to a 100-mm dish and, after 24 hours, transfected with vectors (1 μg) expressing human HDAC1 and HDAC4 or mouse HDAC6, using LipofectAmine 2000 reagent (Life Technologies, Inc. Gaithersburg, Md.). […] The vectors were introduced for five hours in OPTI-MEM. The medium was then replaced with Dulbecco's modified Eagle's medium (DMEM), and incubated for 19 hours. The cells were washed with PBS, suspended in lysis buffer (50 mM Tris-HCl (pH7.5), 120 mM NaCl, 5 mM EDTA, and 0.5% Nonidet P-40), and sonicated. The supernatant was collected by centrifugation and nonspecific protein was removed using Protein A/G plus agarose beads (Santa Cruz Biotechnologies, Inc.). Anti-FLAG M2 antibodies (Sigma-Aldrich, Inc.) were added to the supernatant of cells expressing HDAC1 or HDAC4. Anti-HA antibodies (clone 3F10, Roche Molecular Biochemicals) were added to the supernatant of cells expressing HDAC6. Reaction in the respective mixtures was carried out at 4° C. for one hour. The resulting reaction mixtures were independently mixed with agarose beads and further reacted at 4° C. for one hour. The agarose beads were washed three times with lysis buffer and then washed once with HD buffer (20 mM Tris-HCl (pH8.0), 150 mM NaCl, 10% glycerol, and a complete protease inhibitor cocktail (Boehringer Mannheim, Germany)). […] The HDAC reaction solution was used for determining HDAC inhibition activity as shown below.
(§2) In vitro HDAC inhibition activity was evaluated as follows: A test compound was dissolved in DMSO and adjusted to 10 mM. This was used as an inhibitor stock solution. […] These reactions were stopped by adding 10 μl HCl. The [^3H] acetic acid excised by the enzyme reaction was extracted with ethyl acetate and subjected to radioactive dose measurement. As a negative control, the same procedure was carried out in which no inhibitor was added to the reaction system. The inhibition activity was expressed as a 50% inhibition concentration (“IC50 (nM)”) of the HDAC activity in the negative control (Tables 1 to 4).

human HDAC1 = target: T2, human HDAC1 (Homo sapiens, UniProt Q13547); experiment: In vitro HDAC inhibition activity, [3H]-acetylated histone substrate, HDAC1; format: biochemical
T2 construct: FLAG; made in house; host or cells: 293T cells (transient transfection, anti-FLAG immunoprecipitation, FLAG peptide elution)
Experimental: as §1, §2

[4] = test system: human uterine cancer cells (HeLa); experiment: in vitro; details: 48 h
Experimental: (§3) Human normal lung cells (TIG-3) and human uterine cancer cells (HeLa) were used to test SCOP cytotoxicity. These TIG-3 and HeLa cells were cultured in a DMEM medium comprising 10% FBS at 37° C. in the presence of 5% carbon dioxide in a steam-saturated incubator. The TIG-3 and HeLa cells were plated in 100 μl/well of the above-described medium on a 96-well microtiter plate, at a density of 30,000 cells/well and 10,000 cells/well respectively. This was then cultured for 18 hours. Test compound solution diluted with medium was added to each well and culture was continued for another 48 hours.
(§4) 30 μl of supernatant from each well was transferred to another 96-well microtiter plate (A), and the remaining supernatant was discarded. 100 μl of 0.5% Triton-X/PBS was added to each well to lyse the cells, and 30 μl was then transferred to each respective well of another 96-well microtiter plate (B). 30 μl of LDH-Cytotoxic Test (Wako) substrate solution was added to each well of these 96-well microtiter plates A and B, causing a color reaction. Once the color reaction was sufficiently progressed, it was stopped by adding 60 μl of a quenching solution. Color intensity was measured at OD560 nm using a microplate reader (Softmax). [A/(A+B)] was calculated as the free-LDH ratio. […] The higher the activity value for cancer-cell-selective cell damage (LD50 for normal cells/LD50 for cancer cells), the more that cancer-cell-selective apoptosis was induced.

in vitro = details: human, Cancer-Cell-Selective Cytotoxicity
Experimental: as §3, §4

mouse HDAC6 = target: T3, mouse HDAC6 (Mus musculus, UniProt Q9Z2V5); experiment: In vitro HDAC inhibition activity, [3H]-acetylated histone substrate, HDAC6; format: biochemical
T3 construct: HA; made in house; host or cells: 293T cells (transient transfection, anti-HA immunoprecipitation, HA peptide elution)
T3 sequence (Q9Z2V5 1-1149): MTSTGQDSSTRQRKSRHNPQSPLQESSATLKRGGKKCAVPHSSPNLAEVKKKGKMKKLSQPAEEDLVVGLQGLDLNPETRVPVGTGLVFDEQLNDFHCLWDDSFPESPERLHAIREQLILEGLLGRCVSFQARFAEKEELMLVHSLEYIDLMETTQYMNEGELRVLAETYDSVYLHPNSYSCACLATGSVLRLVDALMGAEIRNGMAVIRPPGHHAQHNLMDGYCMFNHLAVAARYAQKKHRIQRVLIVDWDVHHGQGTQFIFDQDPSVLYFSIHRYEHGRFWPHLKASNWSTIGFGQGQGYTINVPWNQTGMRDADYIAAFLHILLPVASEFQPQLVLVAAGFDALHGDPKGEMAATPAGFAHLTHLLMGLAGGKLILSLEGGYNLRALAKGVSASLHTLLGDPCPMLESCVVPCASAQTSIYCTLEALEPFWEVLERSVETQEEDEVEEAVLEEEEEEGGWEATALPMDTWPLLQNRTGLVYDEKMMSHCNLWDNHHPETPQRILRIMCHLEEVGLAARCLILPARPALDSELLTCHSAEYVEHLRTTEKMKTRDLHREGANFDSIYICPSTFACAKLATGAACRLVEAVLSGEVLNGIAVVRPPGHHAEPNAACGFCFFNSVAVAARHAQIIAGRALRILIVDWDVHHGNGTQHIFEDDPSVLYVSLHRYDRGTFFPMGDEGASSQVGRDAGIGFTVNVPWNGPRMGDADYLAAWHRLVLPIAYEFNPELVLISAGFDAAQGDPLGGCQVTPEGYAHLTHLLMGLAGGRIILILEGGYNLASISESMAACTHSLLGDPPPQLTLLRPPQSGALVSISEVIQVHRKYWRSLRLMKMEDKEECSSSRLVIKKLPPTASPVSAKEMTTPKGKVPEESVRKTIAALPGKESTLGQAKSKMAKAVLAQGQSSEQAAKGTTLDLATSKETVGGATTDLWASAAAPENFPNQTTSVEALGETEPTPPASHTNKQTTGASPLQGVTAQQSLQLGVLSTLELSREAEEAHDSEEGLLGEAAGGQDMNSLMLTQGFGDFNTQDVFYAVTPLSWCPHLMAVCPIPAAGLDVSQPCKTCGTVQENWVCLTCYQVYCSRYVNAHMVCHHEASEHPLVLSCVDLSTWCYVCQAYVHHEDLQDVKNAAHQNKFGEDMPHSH
Experimental: as §1, §2

[5] = Table 1, X = H (coexisting with DTT)
[6] = from H-dTyr(Me)-Ile-dPro-Ab6-OH, 9.7 mM

T2 sequence (Q13547 whole entry): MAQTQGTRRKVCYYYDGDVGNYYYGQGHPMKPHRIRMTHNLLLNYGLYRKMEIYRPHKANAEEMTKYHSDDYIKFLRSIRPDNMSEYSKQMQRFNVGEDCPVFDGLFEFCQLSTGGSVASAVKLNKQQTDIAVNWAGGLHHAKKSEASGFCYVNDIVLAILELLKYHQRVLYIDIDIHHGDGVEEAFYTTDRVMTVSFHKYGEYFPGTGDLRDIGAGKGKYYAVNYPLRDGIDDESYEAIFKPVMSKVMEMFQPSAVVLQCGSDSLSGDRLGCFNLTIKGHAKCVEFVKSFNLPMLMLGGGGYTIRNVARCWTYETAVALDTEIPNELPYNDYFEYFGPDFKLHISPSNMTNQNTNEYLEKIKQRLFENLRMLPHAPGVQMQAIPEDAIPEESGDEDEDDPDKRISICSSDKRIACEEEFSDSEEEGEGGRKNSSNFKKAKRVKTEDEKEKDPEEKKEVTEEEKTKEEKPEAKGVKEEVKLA
T1 sequence (O15379 whole entry partner): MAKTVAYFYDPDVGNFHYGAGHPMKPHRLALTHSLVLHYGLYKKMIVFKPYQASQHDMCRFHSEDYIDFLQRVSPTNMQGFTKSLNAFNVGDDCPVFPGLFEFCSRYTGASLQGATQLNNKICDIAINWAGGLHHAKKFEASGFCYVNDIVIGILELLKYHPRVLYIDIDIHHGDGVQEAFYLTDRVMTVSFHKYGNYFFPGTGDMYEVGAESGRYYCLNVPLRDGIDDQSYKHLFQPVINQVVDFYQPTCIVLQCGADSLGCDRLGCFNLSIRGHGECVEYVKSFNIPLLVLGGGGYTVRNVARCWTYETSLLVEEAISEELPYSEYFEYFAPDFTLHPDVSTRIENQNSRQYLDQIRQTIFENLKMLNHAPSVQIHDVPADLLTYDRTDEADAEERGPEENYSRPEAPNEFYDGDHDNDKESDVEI
T1 sequence (P56524 whole entry): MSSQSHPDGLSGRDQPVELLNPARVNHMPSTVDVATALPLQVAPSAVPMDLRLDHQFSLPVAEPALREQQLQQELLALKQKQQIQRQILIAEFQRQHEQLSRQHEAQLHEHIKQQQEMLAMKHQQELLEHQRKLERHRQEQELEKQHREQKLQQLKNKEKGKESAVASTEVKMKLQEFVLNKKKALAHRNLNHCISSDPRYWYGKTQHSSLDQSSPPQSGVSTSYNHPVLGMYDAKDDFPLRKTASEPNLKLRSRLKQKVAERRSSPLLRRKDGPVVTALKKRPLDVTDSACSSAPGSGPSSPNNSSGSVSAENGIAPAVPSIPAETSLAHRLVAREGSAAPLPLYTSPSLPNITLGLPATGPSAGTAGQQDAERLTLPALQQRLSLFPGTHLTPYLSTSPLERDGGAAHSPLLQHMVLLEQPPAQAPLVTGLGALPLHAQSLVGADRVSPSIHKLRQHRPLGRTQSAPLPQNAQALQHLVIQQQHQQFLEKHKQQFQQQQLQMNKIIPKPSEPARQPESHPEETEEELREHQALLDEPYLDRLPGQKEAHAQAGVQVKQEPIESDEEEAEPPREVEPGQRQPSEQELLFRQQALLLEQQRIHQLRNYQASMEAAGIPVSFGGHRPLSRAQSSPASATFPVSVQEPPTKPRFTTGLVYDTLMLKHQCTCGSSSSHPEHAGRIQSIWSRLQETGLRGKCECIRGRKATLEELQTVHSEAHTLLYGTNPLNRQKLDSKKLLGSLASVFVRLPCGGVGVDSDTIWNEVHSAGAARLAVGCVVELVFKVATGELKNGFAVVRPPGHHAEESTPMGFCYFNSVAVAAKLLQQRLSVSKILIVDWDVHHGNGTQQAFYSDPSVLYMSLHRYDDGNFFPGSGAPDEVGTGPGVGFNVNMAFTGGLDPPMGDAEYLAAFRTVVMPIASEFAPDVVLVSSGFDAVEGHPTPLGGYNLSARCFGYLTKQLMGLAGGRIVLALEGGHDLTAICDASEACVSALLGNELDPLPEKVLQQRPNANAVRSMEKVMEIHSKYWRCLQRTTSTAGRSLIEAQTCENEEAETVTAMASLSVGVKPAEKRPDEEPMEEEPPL

CC[C@H](C)[C@@H]1NC(=O)[C@@H](Cc2ccc(OC)cc2)NC(=O)[C@H](CCCCCBr)NC(=O)[C@H]2CCCN2C1=O [H-Ab7-dTyr(Me)-Ile-dPro-OH]
ring closure, isolated yield ([1]; from H-Ab7-dTyr(Me)-Ile-dPro-OH, 10.2 mM): 64%

CC[C@H](C)[C@@H]1NC(=O)[C@@H](Cc2ccc(OC)cc2)NC(=O)[C@H](CCCCCS)NC(=O)[C@H]2CCCN2C1=O [SCOP 152] (cyclo([Gly((CH2)5SH)][dY](Me)I[dP]))
EC50 ([2]; Table 1, X = H (coexisting with DTT), 50% of maximum active value for TSA): 309 nM | EC50 ([2]; Table 5, purified SCOP 152 under DTT-free conditions): 3510 nM | CC50 at 48 h ([3]; LD50 (nM) TIG-3): 6780 nM | IC50 (human HDAC4; [5]): 2.06 nM | IC50 (human HDAC1; [5]): 4.6 nM | LD50 (nM) HeLa [4]: 370 nM | selectivity ratio at 48 h (in vitro): 18.3 | IC50 (mouse HDAC6; [5]): 1400 nM

CC[C@H](C)[C@@H]1NC(=O)[C@@H](Cc2ccc(OC)cc2)NC(=O)[C@H](CCCCCSSC)NC(=O)[C@H]2CCCN2C1=O [SCOP 405, cyclo(-L-Am7(SMe)-D-Tyr(Me)-L-Ile-D-Pro-)]
EC50 ([2]; Table 3, hybrid, without DTT): 3260 nM | CC50 at 48 h ([3]; 48 hours, free-LDH ratio 50%, without DTT, read-out: LD50 (nM) TIG-3): 7900 nM | IC50 (human HDAC4; Table 3, hybrid, without DTT): 405 nM | IC50 (human HDAC1; Table 3, hybrid, without DTT): 119 nM | LD50 (nM) HeLa [4]: 179 nM | selectivity ratio at 48 h (in vitro; LD50 for normal cells/LD50 for cancer cells (TIG-3/HeLa), without DTT): 44.1 | IC50 (mouse HDAC6; Table 3, hybrid, without DTT): 191 nM

CC[C@H](C)[C@@H]1NC(=O)[C@@H](Cc2ccc(OC)cc2)NC(=O)[C@H](CCCCOn2nnc3cccnc32)NC(=O)[C@H]2CCCN2C1=O [cyclo(-L-A(OAt)6-D-Tyr(Me)-L-Ile-D-Pro-)]
ring closure, isolated yield [1, 6]: 27%

CC[C@H](C)[C@@H]1NC(=O)[C@@H](Cc2ccc(OC)cc2)NC(=O)[C@H](CCCCOn2nnc3cccnc32)NC(=O)[C@H]2CCCN2C1=O [cyclo(-L-Ab6-D-Tyr(Me)-L-Ile-D-Pro-)]
ring closure, isolated yield [1, 6]: 23%

CC[C@H](C)[C@@H]1NC(=O)[C@@H](Cc2ccc(OC)cc2)NC(=O)[C@H](CCCCCBr)NC(=O)[C@H]2CCCCN2C1=O [cyclo(-L-Ab7-D-Tyr(Me)-L-Ile-D-Pip-)]
ring closure, isolated yield ([1]; from H-dTyr(Me)-Ile-dPip-Ab7-OH?, 2.0 mM): 39%

CC[C@H](C)[C@@H]1NC(=O)[C@@H](Cc2ccc(OC)cc2)NC(=O)[C@H](CCCCCBr)NC(=O)[C@@H]2CCCCN2C1=O [cyclo(-L-Ab7-D-Tyr(Me)-L-Ile-L-Pip-)]
ring closure, isolated yield ([1]; from H-dTyr(Me)-Ile-Pip-Ab7-OH?, 2.0 mM): 61%

CC[C@H](C)[C@@H]1NC(=O)[C@@H](Cc2ccc(OC)cc2)NC(=O)[C@H](CCCCCBr)NC(=O)[C@@H]2CCCN2C1=O [cyclo(-L-Ab7-D-Tyr(Me)-L-Ile-L-Pro-)]
ring closure, isolated yield ([1]; from H-dTyr(Me)-Ile-Pro-Ab7-OH, 1.02 mM): 21%

CC[C@H](C)[C@@H]1NC(=O)[C@@H](Cc2ccc(OC)cc2)NC(=O)[C@H](CCCCCCBr)NC(=O)[C@H]2CCCN2C1=O [cyclo(-L-Ab8-D-Tyr(Me)-L-Ile-D-Pro-)]
ring closure, isolated yield ([1]; from H-Ab8-dTyr(Me)-Ile-dPro-OH, 10.0 mM): 55%

CC[C@H](C)[C@@H]1NC(=O)[C@@H](Cc2ccc(OC)cc2)NC(=O)[C@H](CCCCCCCBr)NC(=O)[C@H]2CCCN2C1=O [cyclo(-L-Ab9-D-Tyr(Me)-L-Ile-D-Pro-)]
ring closure, isolated yield ([1]; from H-Ab9-dTyr(Me)-Ile-dPro-OH, 9.4 mM): 61%
